Reference: PubChem BioAssay AID624254 (Broad Institute, 2012)
The source made the active and inactive calls. No rule for the calls is given here.

Test: Quorum luxo inducers, light production, v cholerae bh1651 luxod47e, confirmatory dose response (AID 624254)
Conditions: V. cholerae BH1651 luxOD47E, luciferase light induction, 6 h; at 50 µM (top of the series)

Compound | activation (light increase)
O=C(Nc1cccc(-c2ccc(N3CCOCC3)nn2)c1)c1ccc([N+](=O)[O-])cc1 | inactive
Cn1c(=O)oc2cc(S(=O)(=O)N3CCN(c4ccc(F)cc4)CC3)ccc21 | inactive
CCCS(=O)(=O)N1CCCC(C(=O)NCCCN(C)Cc2ccccc2)C1 (stereo unspecified) | inactive
O=C(COc1cccc(Cl)c1)Nc1ccccc1N1CCCCC1 | inactive
CCCCn1c(=O)[nH]c(=O)c2c1nc(COc1ccc(C#N)cc1)n2CCC | inactive
O=C(NCC1CCCO1)C1CCN(C(=O)c2ccc(Cl)cc2)CC1 (stereo unspecified) | inactive
CCOC(=O)C1CCN(C(=O)C2c3ccccc3C(=O)N(C)C2c2ccc(OC)cc2)CC1 (stereo unspecified) | inactive
CCC1C(=O)NCCN1C(=O)CCc1nnc(CCc2ccc(OC)cc2)o1 (stereo unspecified) | inactive
Cc1ccccc1C(=O)Nc1ccc(-c2nc3ccc(C(=O)c4ccccc4)cc3[nH]2)cc1 | inactive
CCCn1nnnc1NCc1ccc(OC)cc1OC | inactive
CN(C1CCCCC1)S(=O)(=O)CCNC(=O)c1ccccc1 | inactive
COC(=O)Nc1ccc(S(=O)(=O)NCCO)cc1 | inactive
CC(C)c1ccc(C(=O)OCC(=O)NC2CCCC2)cc1 | inactive
CN(CC(=O)NCCN1CCOCC1)S(=O)(=O)c1ccc(Cl)cc1 | inactive
COc1ccccc1NS(=O)(=O)c1cn(C)cn1 | inactive
CC(=O)Nc1ccccc1NS(=O)(=O)c1cn(C)cn1 | inactive
O=C(Cc1ccc(-c2ccccc2)cc1)NC1CCCC1 | inactive
O=C(COC(=O)CNC(=O)c1ccco1)NCCN1C(=O)CSC1=O | inactive
C=Cn1c(C(=O)O)ccc1-c1ccc(Cl)cc1 | inactive
COC(C(=O)Nc1ccccc1C(=O)N1CCOCC1)c1ccccc1 (stereo unspecified) | inactive
Cn1c(SCc2cnc(-c3ccccc3)s2)nnc1C1COc2ccccc2O1 (stereo unspecified) | inactive
O=C(/C=C/c1ccc(OCCCF)cc1)NCc1ccc(Cl)cc1 | inactive
CN(CC(=O)Nc1ccc(F)c(F)c1F)C(=O)C1CCC1 | inactive
COc1ccc(CCNC(=O)c2ccc(Cl)cc2Cl)cc1 | inactive

Compound | activation (light increase)
CC(=O)Nc1ccc(Nc2nc(C)nc3c2oc2ccccc23)cc1 | inactive
COc1cccc(CN(C)C(=O)CSC(C)C(=O)Nc2cc(C)on2)c1OC (stereo unspecified) | inactive
COc1c(C)cccc1C(=O)Nc1ccc(OCC(=O)N2CCOCC2)cc1C | inactive
CCc1nc(NCCCN2CCOCC2)c2oc3ccccc3c2n1 | inactive
COc1ccc(OC)c(NC(=O)COC(=O)c2cc3c(s2)CCC3)c1 | inactive
Cc1ccc(C(=O)OCC(=O)NCCNC(=O)COC(=O)c2ccc(C)s2)s1 | inactive
Cc1ccc(C)c(N(C(=O)Cn2nnc(-c3cccs3)n2)C(C(=O)NC2CC2)c2ccc(C)o2)c1 (stereo unspecified) | inactive
CCOc1ccccc1N(CC(=O)Nc1ccc2c(c1)OCCO2)S(C)(=O)=O | inactive
Cn1c(CCNC(=O)c2ccco2)nc2cc(NC(=O)NC3CCCCC3)ccc21 | inactive
C[C@H](CO)N1C[C@H](C)[C@H](CN(C)S(=O)(=O)c2ccccc2)Oc2c(NC(=O)Nc3ccc4c(c3)OCO4)cccc2C1=O | inactive
Cc1occc1-c1nnc(SCC(=O)NCc2cccs2)n1-c1ccc(F)cc1 | inactive
CCc1ccc(C(=O)OCC(=O)NC2CCCC2)cc1 | inactive
Cc1ccccc1C(=O)Nc1cccc(N)c1 | inactive
COC(=O)c1ccc(CSc2nnc3c(Cl)cc(Cl)cn23)o1 | inactive
CCCC(=O)NC1CCCc2c1cnn2-c1ccc(C)c(C)c1 (stereo unspecified) | inactive
COc1ccc(Cl)cc1NC(=O)COC(=O)c1cc(C)oc1C | inactive
Cn1cnnc1SCCOc1ccc(Cl)cc1 | inactive
COc1ccc2[nH]c(=O)c(CNc3ccc(C)c(C)c3)cc2c1 | inactive
CCOC(=O)C1CCCc2c1[nH]c1c(C(=O)O)cccc21 (stereo unspecified) | inactive
O=c1c2cc(Br)ccc2nc(-c2cccc(C(F)(F)F)c2)n1O | inactive
Cc1ccc(NC(=S)NCCc2c[nH]c3ccccc23)cc1 | inactive
O=C(COC(=O)[C@H](Cc1c[nH]c2ccccc12)NC(=O)c1ccc(Cl)cc1)Nc1ccc2c(c1)OCO2 | inactive
CC(C)CCOc1cccc(OCC(=O)N(C)C2CCS(=O)(=O)C2)c1 (stereo unspecified) | inactive
Cc1ccc(S(=O)(=O)N(C)C[C@H]2Oc3c(NC(=O)Nc4ccc5c(c4)OCO5)cccc3C(=O)N([C@H](C)CO)C[C@@H]2C)cc1 | inactive

Compound | activation (light increase)
O=C(COC(=O)C1CCC1)Nc1ccc(Oc2ccccc2)cc1 | inactive
Cn1cnc(S(=O)(=O)Nc2ccc(Cl)cc2)c1 | inactive
Cc1ccc2nc(SCc3nnc(-c4ccccc4Br)o3)[nH]c2c1 | inactive
CCCOc1ccc(NS(=O)(=O)c2cn(C)cn2)cc1 | inactive
CCOc1ccc2cc(C#N)c(SCC(=O)N3CCC(C)CC3)nc2c1 | inactive
Cc1ccc(C(=O)COc2cc(C)nc3nncn23)cc1 | inactive
CCn1c(CC(=O)Nc2cccc(Cl)c2Cl)nnc1SCCOc1ccc(OC)cc1 | inactive
Cc1cccc(NC(=O)c2ccc(Oc3ccccc3)cc2)n1 | inactive
O=C(Cc1ccc2c(c1)CCCC2)Nc1ccccc1Cl | inactive
CCC1(CC)NC(=O)N(CC(=O)OCC(=O)NC(=O)c2ccccc2OC)C1=O | inactive
Cn1cnc(S(=O)(=O)Nc2ccc(F)cc2)c1 | inactive
Clc1ccc(-c2cc(COc3ccc4ccccc4c3)no2)cc1 | inactive
CCN(CC)S(=O)(=O)c1cccc(C(=O)OCC(=O)C23CC4CC(CC(C4)C2)C3)c1 | inactive
CCCNC(=O)COC(=O)/C=C/c1ccc(C)o1 | inactive
CC(=O)C(CC(=O)N1CCCc2ccccc21)C(=O)Nc1ccc(F)cc1 (stereo unspecified) | inactive
COC(=O)c1ccc(-c2nc3cc(Cl)c(N)cc3s2)cc1 | inactive
C[C@H]1CN([C@@H](C)CO)C(=O)c2cccc(NC(=O)C3CC3)c2O[C@H]1CN(C)S(=O)(=O)c1cccs1 | inactive
COc1cc(NC(=O)c2ccccc2)c(OC)cc1NC(=O)CN1C(=O)N(C)C2(CCCCC2)C1=O | inactive
O=C(CN1C(=O)COc2ccccc21)c1ccc(Cl)cc1 | inactive
CCc1ccc(S(=O)(=O)Nc2ccc(Br)cn2)cc1 | inactive
COc1ccc(S(=O)(=O)N2CCCCC2)cc1NC(=O)c1ccc(OC)c(OC)c1 | inactive
C=Cn1c(C(=O)O)ccc1-c1ccc(CC)cc1 | inactive
COc1ccccc1NC(=O)COC(=O)c1ccc2c(c1)OCCO2 | inactive
COc1ccc(Cl)cc1NC(=O)COC(=O)c1ccc(C)o1 | inactive

Compound | activation (light increase)
COc1ccc(CNC(=O)CSc2nc3c(oc4ccccc43)c(=O)n2CC2CCCO2)cc1 (stereo unspecified) | inactive
CCOCCCNC(=O)C(NC(=O)CNC(=O)c1ccccc1)c1ccccc1 (stereo unspecified) | inactive
COc1cc2c(cc1OC)C(c1ccc(C)cc1)NC(=O)C2 (stereo unspecified) | inactive
COc1ccc(CC(=O)N2CCC(Nc3nc4ccccc4n3Cc3ccc(F)cc3)CC2)cc1 | inactive
CC1(NC(=O)C23CC4CC(CC(C4)C2)C3)CCS(=O)(=O)C1 (stereo unspecified) | inactive
COc1cc(NC(=O)Cc2cccs2)ccc1-n1cnnn1 | inactive
COc1cccc(NC(=O)C2CC(=O)OC23CCOC(C)(C)C3)c1 (stereo unspecified) | inactive
CCOC(=O)CC1C(=O)NCCN1C(=O)c1cccc(C(F)(F)F)c1 (stereo unspecified) | inactive
O=C(NCCS(=O)(=O)N1CCN(c2ccccc2)CC1)c1ccco1 | inactive
CC(=O)N1CCC(=O)N(C(C)C)c2ccccc21 | inactive
CCC(=O)c1ccc(N2CCCCCC2)c(F)c1 | inactive
C[C@H](CO)N1C[C@H](C)[C@@H](CN(C)S(=O)(=O)c2cccs2)Oc2c(NC(=O)C3CC3)cccc2C1=O | inactive
CC(=O)c1cccc(NC(=O)COC(=O)Cc2ccc(Cl)cc2)c1 | inactive
C[C@H](CO)N1C[C@H](C)[C@@H](CN(C)S(=O)(=O)c2ccc(Cl)cc2)Oc2c(NC(=O)Nc3ccc4c(c3)OCO4)cccc2C1=O | inactive
O=C(Nc1ccc(Cl)c(Cl)c1)Nc1ccccc1C(=O)O | inactive
COC(=O)c1cc(COC(=O)c2ccc(OC)c(S(=O)(=O)N3CCCC3)c2)oc1C | inactive
Cc1ccc2cc(C(c3nnnn3C3CCCC3)N3CCN(c4ccc(F)cc4)CC3)c(=O)[nH]c2c1 (stereo unspecified) | inactive
COC(=O)c1ccc(C2C(C(C)=O)=C(O)C(=O)N2CCO)cc1 (stereo unspecified) | inactive
Cc1ccc(S(=O)(=O)N2CCN(C(=O)COC(=O)/C=C/c3ccc(F)cc3)CC2)c(C)c1 | inactive
O=c1c2c3c(sc2ncn1Cc1ccc(F)cc1)CCC3 | inactive
CC(=O)c1ccc(S(=O)(=O)Nc2cccc(-c3ccc4nncn4n3)c2)cc1 | inactive
Cc1ccc(OCCNC(=O)c2ccco2)cc1C | inactive
NC(=O)c1nsc(C(=O)N(CC(=O)NCc2ccc(F)cc2)Cc2ccco2)c1N | inactive
CN(C)C(=O)CCSc1nnc(-c2ccco2)o1 | inactive
